# According to patent US20240307480A1, “MELFLUFEN FOR USE IN THE TREATMENT OF MULTIPLE MYELOMA” (Oncopeptides AB, priority 2021, published 2024):
# Test system: patients with relapsed refractory multiple myeloma (RRMM) refractory to lenalidomide
# Experiment: Randomized, controlled, open-label, Phase 3 multicenter study of melflufen+dexamethasone versus pomalidomide+dexamethasone (Example 1)
# Assay type: in vivo, human
# Settings: for OS / PFS: no stem cell transplant
# Procedure: Patients received either melflufen+dexamethasone or pomalidomide+dexamethasone.
# Patients were randomized to either one of two arms (see Table 1 below): • Arm A: Melphalan flufenamide (Melflufen) 40 mg on Day 1 and dexamethasone 40 mg on Days 1, 8, 15 and 22 of each 28-day cycle. • Arm B: Pomalidomide 4 mg daily on Days 1 to 21 and dexamethasone 40 mg on Days 1, 8, 15 and 22 of each 28-day cycle.
# Dose modifications and delays in therapy were implemented based on patient tolerability as detailed in the protocol. In the event of a cycle delay, unrelated to dexamethasone toxicity, it was recommended to continue dexamethasone weekly.
# • Study Type: Interventional (Clinical Trial) • Actual Enrollment: 495 participants • Allocation: Randomized • Intervention Model: Parallel Assignment • Masking: Single (Outcomes Assessor) • Primary Purpose: Treatment • Official Title: A Randomized, Controlled, Open-label, Phase 3 Study of Melflufen/Dexamethasone Compared With Pomalidomide/Dexamethasone for Patients With Relapsed Refractory Multiple Myeloma Who Are Refractory to Lenalidomide
# • 1. Progression Free Survival (PFS) [Time Frame: From randomization to time of progression, or, if no progression, 24 months after end of treatment]: To compare the PFS of melflufen plus dexamethasone (Arm A) versus pomalidomide plus dexamethasone (Arm B) as assessed by the Independent Review Committee (IRC) according to the International Myeloma Working Group Uniform Response Criteria (IMWG-URC)
# • 1. […] Overall Survival (OS) [Time Frame: From randomization until end of study (2 years after confirmed progression)]: To assess and compare OS in Arm A versus Arm B • 4. Safety and Tolerability: Number of patients with treatment-emergent adverse events, including clinical laboratory and vital signs abnormalities, as assessed by CTCAE v4.0 [Time Frame: From start of dosing until 30 days after last dose]: To assess and compare safety and tolerability in Arm A versus Arm B. Number of patients with treatment-emergent adverse events, including clinical laboratory and vital signs abnormalities, as assessed by CTCAE v4.0 will be presented. No formal statistical analysis will be performed for safety endpoints.
# • 1. Male or female, age 18 years or older • 2. A prior diagnosis of multiple myeloma with documented disease progression requiring further treatment at time of screening • 3. Measurable disease defined as any of the following: • Serum monoclonal protein ≥0.5 g/dl by protein electrophoresis. • ≥200 mg/24 hours of monoclonal protein in the urine on 24-hour electrophoresis • Serum free light chain ≥10 mg/dl AND abnormal serum kappa to lambda free light chain ratio • 4. Received 2-4 prior lines of therapy, including lenalidomide and a PI, either sequential or in the same line, and is refractory (relapsed and refractory or refractory) to both the last line of therapy and to lenalidomide (≥10 mg) administered within 18 months prior to randomization. Refractory to lenalidomide is defined as progression while on lenalidomide therapy or within 60 days of last dose, following at least 2 cycles of lenalidomide with at least 14 doses of lenalidomide per cycle • 5. Life expectancy of ≥6 months • 6. Eastern Cooperative Oncology Group (ECOG) performance status ≤2 • 7. […] Participants must agree to ongoing pregnancy testing. All patients must be willing to comply with all requirements of the USA pomalidomide Risk Evaluation and Mitigation Strategy (REMS) program or the pomalidomide Pregnancy Prevention Plan (PPP) • 8. Ability to understand the purpose and risks of the study and provide signed and dated informed consent • 9. 12-lead Electrocardiogram (ECG) with QT interval calculated by Fridericia Formula (QTcF) interval of ≤470 msec Fridericia Formula • 10. […] Must be able to take antithrombotic prophylaxis • 12. Must have, or be willing to have an acceptable central catheter.
# [1] = excluding patients who had received a stem cell transplant and progressed in under 36 months (melflufen+dex n=145, pomalidomide+dex n=148)
# [2] = subgroup patients under 65 years
# [3] = patients 75 or over who received melflufen, pomalidomide comparator worded as patients who had not received a stem cell transplant
# [4] = patients who had not received a stem cell transplant as a past treatment (melflufen n=121, pomalidomide n=129), each arm with dexamethasone
# [5] = stem cell transplant at least 5 years ago, melflufen in relation to pomalidomide, value below 1 favours melflufen
SMILES,median overall survival (OS) [1] [months],OS (subgroup 64 to 74 years),PFS (subgroup 64 to 74 years),OS (subgroup 75 years and over),PFS (subgroup 75 years and over),OS (subgroup age under 75 years),PFS (subgroup age under 75 years),PFS [2],median PFS [3] [months],median overall survival (OS) [3] [months],median overall survival (OS) [4] [months],median progression free survival (PFS) [4] [months],OS [2],"hazard ratio (PFS) (stem cell transplant 2.5 to 5 years ago, melflufen in relation to pomalidomide, value below 1 favours melflufen)",OS hazard ratio [5],PFS hazard ratio [5]
"Nc1cccc2c1C(=O)N(C1CCC(=O)NC1=O)C2=O (stereo not shown) [pomalidomide, reference compound]",19.8,15.0,3.9,8.1,4.9,18.2,4.3,4.7,4.6,8.3,16.5,4.6,–,–,–,–
"CCOC(=O)[C@H](Cc1ccc(F)cc1)NC(=O)[C@@H](N)Cc1ccc(N(CCCl)CCCl)cc1.Cl [melflufen, L-melphalanyl-4-fluoro-L-phenylalanine ethyl ester]",23.6,22.2,9.3,14.8,9.3,22.2,9.4,10.8,9.4,21.6,21.6,9.3,27.5,0.83,0.87,0.76
